Patent publication US10829731B2, “Biocatalysts for conversion of thermochemical waste streams” (Alliance for Sustainable Energy, LLC, priority 2018, dated 2020)
Like-named read-outs stand apart in the source and are kept apart here.

How the values were obtained:
P. putida KT2440 = experiment: microbe, parasite or virus in culture; assay type: cell-based
Experimental: Toxicity of the TC wastewater streams and toxic compounds present in FPS were evaluated in microplate growth assays performed in a Bioscreen C MBR analyzer (Growth Curves US, Piscataway, N.J.). Pre-cultures of the strains were prepared by inoculating 25 mL M9 medium supplemented with 20 mM glucose in a 125 mL baffled flask to an OD600 of 0.05-0.1 and incubating shaking at 225 rpm, 30° C. At mid log phase (OD600 0.5-1.0), cells were harvested by centrifugation at 13,000 rpm, and the cell pellets were washed twice and resuspended in M9 medium without a carbon source. These resuspended cells were used to inoculate microplate wells containing 200 μL of M9 medium supplemented with 20 mM glucose and various concentrations of TC wastewater streams or their components to OD600 0.1. Microplates were then incubated at 30° C. with maximum shaking and growth was measured by reading the absorbance (OD420-580) every 30 minutes. Growth rates were calculated according to the growth curve equation.
The compounds present in the FPF stream were classified according to chemical functionality, aldehydes, ketones, phenolics, or acids, and the growth rate of P. putida was evaluated against each class of compounds.

[1] = test system: GFP-expressing strain of P. putida KT2440; experiment: GFP immunoblot of cell-free extract after GA or FPF treatment; assay type: cell-based, Pseudomonas putida; conditions: GA (2 mM) or FPF (0.05% (v/v))
Source text: Aldehydes, the key toxic component of the FPF stream, can confer molecular toxicity via protein damage. Indeed, GA, the major aldehyde present in FPF is a well-known post-translational protein-damaging agent. […] Cell-free extract from these conditions was immunoblotted to detect the presence of GFP. […] Furthermore, GFP inclusion bodies formed in cells treated with GA or FPF, which might be due to misfolding or cross-linking of the GFP protein. […] Thus, in an embodiment, overexpression of chaperones to rescue damaged or misfolded proteins was chosen as a strategy to enhance the tolerance of P. putida to FPF.
The fate of GFP in the LJ014 strain after treatment with FPF was then examined.

[2] = Pseudomonas putida, KT2440, effective concentration that decreases the growth rate by 50%, M9 medium with 20 mM glucose, 30° C., read-out: EC50
[3] = effective concentration that decreases the growth rate by 50%, M9 medium with 20 mM glucose, 30° C., read-out: EC50
[4] = Pseudomonas putida, KT2440, effective concentration that decreases the growth rate by 50%, M9 medium with 20 mM glucose, 30° C.

| EC50 (P. putida KT2440; [2]) [mM] | SMILES | EC50 (P. putida KT2440; Pseudomonas putida, KT2440) [mM] | further results |
| --- | --- | --- | --- |
| 64.1 | CC(=O)O [Acetic acid] |  |  |
| 35.2 | CCCC(=O)O [Butanoic acid] |  |  |
| 13.3 | COc1ccccc1O [Guaiacol] |  |  |
| 22.4 | CCC(=O)O [Propionic acid] |  |  |
| 4.21 | COc1cccc(OC)c1O [Syringol] |  |  |
| 6.34 | COc1cc(C=O)ccc1O [Vanillin] |  |  |
| 2.25 | Cc1ccc(O)cc1 [p-Cresol] |  |  |

Second part, the compound before the results:

| SMILES | EC50 (P. putida KT2440; [2]) [mM] | EC50 (P. putida KT2440; Pseudomonas putida, KT2440) [mM] | further results |
| --- | --- | --- | --- |
| Cc1ccc(C)c(O)c1 [2,5-Xylenol] | 2.52 |  |  |
| O=C1C=CCO1 [2-Butenolide] | 7.77 |  |  |
| CC1=CCOC1=O [2-Methyl-butenolide] | 5.02 |  |  |
| CCC(=O)CO [2-Oxobutanol] | 27.8 |  |  |
| O=Cc1ccoc1 [3-Furancarboxaldehyde] | 13.9 |  |  |
| O=Cc1ccc(CO)o1 [5-HMF, 5-(Hydroxymethyl)furfural] | 14.3 |  |  |
| Cc1ccc(C=O)o1 [5-methylfufaral] |  |  | EC50 (P. putida KT2440; [3]): 15 mM |
| CC=O [Acetaldehyde] |  | 16.2 |  |
| CC(=O)CO [Acetol] |  |  | EC50 (P. putida KT2440; [3]): 12.4 mM |
| CC(C)=O [Acetone] |  | 39.3 |  |
| C=CC(=O)O [Acrylic acid] |  | 11.7 |  |
| O=C1CCCC1 [Adipic ketone] |  |  | EC50 (P. putida KT2440; [3]): 9.8 mM |
| Oc1ccccc1O [Catechol] |  | 42.4 |  |
| C/C=C/C=O [Crotonaldehyde] |  | 17.4 |  |
| C=O [Formaldehyde] |  |  | EC50 (P. putida KT2440; [4]): ~2 mM; EC50 (P. putida KT2440; effective concentration that decreases the growth rate by 50%, M9 medium with 20 mM glucose, 30° C.): 2.07 mM |
| O=Cc1ccco1 [Furfural] | 21 |  |  |
| O=CCO [Glycolaldehyde] | ~2 |  | EC50 (P. putida KT2440; [3]): 2.14 mM; free-GFP level relative to the untreated controls [1]: 46.8% |
| O=CC=O [Glyoxal] |  | 3.5 |  |
| C=C(CC(=O)O)C(=O)O [Itaconic acid] | 89.4 |  |  |
| CC(=O)CCO [Methylolacetone] |  | 28.8 |  |
| Oc1ccccc1 [Phenol] |  |  | EC50 (P. putida KT2440; [4]): 9.24 mM |
| Cc1cccc(O)c1 [m-Cresol] |  | 3.46 |  |
| Cc1ccccc1O [o-Cresol] |  | 3.12 |  |
